Entries after “also recorded” stand apart in the source; their conditions may differ. Blank lines part the entries; values can stand above or below the compound they belong to. Where a SMILES comes first, the peptide text is derived from it. Where no end group is shown, it is not given here.
Experiments:
JNK1α1 = target: T1, JNK1α1 (Homo sapiens, UniProt P45983); experiment: BLI binding of biotinylated NOS3 peptides to JNK1α1; settings: for Kd / koff / kon: BLI, global one-state fit; for Kd: inactive (unphosphorylated) JNK1α1 31-1000 nM, biotinylated peptide ligand, 25 °C, PBS, 10% glycerol, 0.005% tween, 1 mM DTT; for koff / kon: inactive JNK1α1, 25 °C, PBS buffer; for binding of phosphopeptide: BLI sensorgram, kinase analyte JNK1α1
T1 construct: GST; host or cells: E. coli BL21(DE3) pLysS
T1 sequence (P45983 1-384 isoform P45983-2, species assumed): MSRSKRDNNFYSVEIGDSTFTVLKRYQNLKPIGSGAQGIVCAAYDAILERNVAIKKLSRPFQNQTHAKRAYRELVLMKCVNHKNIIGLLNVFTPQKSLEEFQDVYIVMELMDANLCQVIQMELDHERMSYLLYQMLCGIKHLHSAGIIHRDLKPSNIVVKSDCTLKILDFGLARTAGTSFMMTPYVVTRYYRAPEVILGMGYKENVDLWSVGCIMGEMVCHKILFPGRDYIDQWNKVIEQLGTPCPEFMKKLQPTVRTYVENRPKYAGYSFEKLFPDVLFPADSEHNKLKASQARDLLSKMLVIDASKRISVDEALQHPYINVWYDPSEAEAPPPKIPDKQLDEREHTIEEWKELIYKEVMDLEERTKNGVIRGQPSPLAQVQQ
Protocol: (§1) Biolayer interferometry (BLI) experiments were performed on a FortéBio (Menlo Park, CA) Octet QK biosensor using streptavidin (SA) sensors. Assays were performed in opaque 96‐well microplates at 25 °C. All volumes were 200 μL. Active GST‐JNK1α1 (SignalChem) was biotinylated by amine crosslinking to NHS‐LC‐LC‐biotin (succinimidyl‐6‐[biotinamido]‐6‐hexanamidohexanoate) (Thermo Fisher, Waltham, MA, USA). Reactions were performed at a 5 : 1 molar ratio of biotin to protein for 30 min at room temperature followed by separation of protein from free biotin by passage over a desalting column. Biotinylated JNK1α1 was loaded onto sensors for 300 s, which was sufficient to saturate them. Baseline was established by dipping sensors into binding buffer (50 mM Tris, pH 7.4, 10 mM NaCl, 10% glycerol, 0.01% Tween‐20) prior to moving sensors to wells containing varying concentrations of serially diluted NOS3 in the same buffer. Association was measured for 300 s, after which sensors were moved to wells containing buffer only and dissociation was monitored for another 300 s. Raw data were normalized for baseline drift by subtracting signal from a ligand‐saturated sensor exposed to buffer only throughout the experiment and then iteratively fit to a one‐state global association‐then‐dissociation binding model using GRAPHPAD Prism. Total binding was used for analysis as nonspecific binding measured by exposing sensors without ligand to analyte was negligible at all NOS3 concentrations used; that is, total binding was effectively specific binding due to very low nonspecific binding.
(§2) For peptide binding experiments, N‐terminally biotinylated peptides (Biomatik) (Table 1) in PBS with 10% glycerol, 0.005% tween, and 1 mM DTT were loaded onto SA sensors as above. After establishing baseline, sensors were exposed to serial dilutions of analyte MAP kinases ranging from 31 to 1000 nM. Peptide experiments were performed using parameters identical to the protein ligand experiments excepting the buffer was PBS with 10% glycerol, 0.005% tween, and 1 mM DTT throughout.
(§3) We tested both hypothesized interaction sites and the impact of nearby phosphorylation sites using: (a) a nonphosphorylated peptide corresponding to the putative NtMAP site (Fig. 1); (b) the identical peptide with S114 phosphorylated; (c) a nonphosphorylated peptide corresponding to the AI loop site; and (d) an identical peptide phosphorylated at the position corresponding to S633. The resultant sensorgrams are shown in Fig. 4 fit to global one‐state binding models to determine binding parameters. While there are complexities present in the data (see Discussion), a one‐state models fit very well to all peptide‐kinase curves. All three kinases bound both unphosphorylated peptides with submicromolar affinity that in most cases approximated the affinity observed for full‐length NOS3 reported above and in our prior report.

p38α = target: T2, p38α (Homo sapiens, UniProt Q16539); experiment: BLI binding of biotinylated NOS3 peptides to p38α; settings: for koff / kon: BLI, inactive p38α, 25 °C, PBS buffer, global one-state fit; for binding of phosphopeptide: BLI sensorgram, kinase analyte p38α
T2 construct: His; made in house; host or cells: E. coli BL21(DE3) pLysS
T2 sequence (Q16539 whole entry): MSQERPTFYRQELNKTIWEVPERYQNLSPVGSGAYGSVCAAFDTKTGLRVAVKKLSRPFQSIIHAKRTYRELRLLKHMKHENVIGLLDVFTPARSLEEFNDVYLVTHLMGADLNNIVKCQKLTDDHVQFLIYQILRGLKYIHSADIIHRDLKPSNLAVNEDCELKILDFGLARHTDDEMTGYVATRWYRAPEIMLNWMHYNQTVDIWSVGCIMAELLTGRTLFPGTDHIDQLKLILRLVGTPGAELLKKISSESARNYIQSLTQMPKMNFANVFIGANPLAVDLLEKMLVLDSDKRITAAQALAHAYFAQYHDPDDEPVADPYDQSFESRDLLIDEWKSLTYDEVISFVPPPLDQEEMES
Protocol: as §1, §2, §3

ERK2 = target: T3, ERK2 (Rattus norvegicus, UniProt P63086); experiment: BLI binding of biotinylated NOS3 peptides to ERK2; settings: for Kd / koff / kon: BLI, global one-state fit; for Kd: inactive (unphosphorylated) ERK2 31-1000 nM, biotinylated peptide ligand, 25 °C, PBS, 10% glycerol, 0.005% tween, 1 mM DTT; for koff / kon: inactive ERK2, 25 °C, PBS buffer; for binding of phosphopeptide: BLI sensorgram, kinase analyte ERK2
T3 construct: His; host or cells: E. coli BL21(DE3) pLysS
T3 sequence (P63086 whole entry): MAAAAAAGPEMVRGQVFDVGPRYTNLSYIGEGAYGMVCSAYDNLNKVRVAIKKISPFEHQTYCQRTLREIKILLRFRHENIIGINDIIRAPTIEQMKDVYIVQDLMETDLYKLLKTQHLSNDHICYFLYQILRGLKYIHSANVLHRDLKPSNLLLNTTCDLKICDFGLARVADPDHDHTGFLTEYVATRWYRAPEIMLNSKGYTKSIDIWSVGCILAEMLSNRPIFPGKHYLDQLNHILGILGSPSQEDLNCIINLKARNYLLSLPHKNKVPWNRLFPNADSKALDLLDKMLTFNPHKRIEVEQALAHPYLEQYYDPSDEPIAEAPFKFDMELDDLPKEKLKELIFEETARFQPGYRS
Protocol: as §1, §2, §3

NOS3 [1] = experiment: TCSPC fluorescence lifetime, conformation of NOS3; settings: FMN excited at 473 nm, detected at 525 nm
Protocol: Time‐resolved intensity decays were recorded using time‐correlated single‐photon counting fluorescence lifetime spectrometry (TCSPC FLT) to determine whether phosphorylation by JNK1α1 changes the conformation of NOS3.

NOS3 [2] = experiment: NOS3 phosphorylation status in HMEC-1 cells; assay type: cell-based, human; settings: data not shown
Protocol: Human microvascular endothelial cells (HMEC‐1) (CRL‐3243, ATCC) were cultured in MCDB131 medium. HMEC‐1 cells were maintained as described by the ATCC in MCDB131 supplemented with 10% FBS, 1 µg·mL^−1 Hydrocortisone, 10 mM Glutamine, and 10 ng·mL^−1 Epidermal Growth Factor under an atmosphere of 5% CO2 at 37 °C.

NOS3 [3] = experiment: Oxyhemoglobin assay of NO production by kinase-treated NOS3; assay type: biochemical, human; settings: oxyHb assay, 2.5 µM NOS3 with ERK2 14 nM (N = 10), p38α 14 nM (N = 4), JNK1α1-GST 63 nM (N = 3) or PKA 14 nM (N = 4), 30 min; versus untreated NOS3
Protocol: (§4) Active (HIS‐NOS3) was incubated alone or with individual kinases (ERK2, p38α, JNK1α1, and PKA) in 100 µL reaction buffer (20 mM HEPES, 0.5 mM DTT, 5 mM MgCl2, 0.5 mM ATP, and 10% glycerol at a pH of 7.4). The reactions were performed at 22‐25 °C for up to 1 h, and for the examination of nitric oxide activity, samples were incubated on ice for the immediate detection of NO via the oxyhemoglobin to methemoglobin assay (see below). For immunoblotting analysis to examine phosphorylation, kinase samples were quenched with 2× sample buffer spiked with 25 mM DTT and heated to 95 °C for 5 min. Boiled samples (at equal volumes) were electrophoresed and transferred to PDVF for immunoblot staining.
The oxyhemoglobin assay (oxyHb assay) is a spectroscopic method that measures the oxidative reaction of oxyhemoglobin at 421 nm (oxyHb) and methemoglobin (metHb) at 401 nm. Kinase assay reactions quenched on ice were used to measure NO synthesis and consumption. All oxyHb reactions were performed at 25 °C in a BioTek 96‐well UV‐visible spectrophotometer. Each reaction (100 µL total volume) was mixed with 40 µL of reaction buffer (1 μM FAD, 1 μM FMN, 10% glycerol, 12 nM BH4, 100 μM L‐arginine, 10 mM Tris/HCl, pH 7.5 at 25°, 250 μM CaCl2, 0.20 mg·mL^−1 BSA, 0.31 mg Hemoglobin, 7–10 U Superoxide Dismutase, 7–10 U Catalase, and 17 μg Calmodulin) and up to 40 µL (6–10 µg) of phosphorylated NOS3. Absorbance at 401 nm and 421 nm were read for 1 m at 15‐s intervals. To initiate the reaction, 20 µL of 200 mM NADPH reconstituted in Tris/HCl (1.4 M pH 7.5 at room temperature) was added. Measurements were recorded for 10 min at 15‐s intervals.
To calculate NOS3 activity, the change in absorbance/unit time was divided by the extinction coefficient (ε401‐421 = 77 200 M ^−1cm^−1 (ε401 = 38 600 M ^−1cm^−1)). This yielded NOS3 activity in units of molar change/unit time. Activity of kinase exposed NOS3 was compared to the NOS3 control activity (comparably treated NOS3 but not phosphorylated), and the data are presented as a percent of the control NOS3.

NOS3 [4] = settings: previous report, different (SignalChem GST) ERK2, bovine NOS3; ref [6]; cited from earlier work
Protocol: Portions of the NOS3 phosphorylation assays were analyzed for nitric oxide production, using PKA as a positive control. […] It is important to note that we cannot interpret the degree of NOS3 phosphorylation, just that NOS3 was phosphorylate ...

NOS3 [5] = settings: earlier work, ERK2-treated NOS3; ref [6]; cited from earlier work
NOS3 [6] = experiment: In vitro kinase assay with NOS3, phospho-specific immunoblotting; assay type: biochemical, human; settings: active kinases with NOS3, 5 and 60 min; for phosphorylation of NOS3 at S114: immunoblot with anti-pS114; for phosphorylation of NOS3 at S600: immunoblot with anti-pS600
Protocol: as §4
All samples were loaded at equal volumes on 3–8% gradient tris‐acetate gels. All gels were transferred to PVDF membranes and transferred for either 2 h at 40V or for 20V overnight. Membranes were blocked with one block (Li‐Cor Biosciences) for 30 m and incubated with respective antibodies (at manufacturers recommend concentrations for immunoblotting, 1 : 500 for the anti‐pS600‐NOS3) overnight at 4 °C. Blots were brought to RT for 30 m and washed 3× with 1X TBST for 10 m, probed with a fluorometric secondary antibody (Li‐Cor IRDye®) for 1 h, and washed before visualizing with a Li‐Cor Odyssey.

NOS1 = settings: previous studies; ref [4]; cited from earlier work
Text: While there is substantial nonspecific binding inherent in the NOS1 sample, it is quite clear that there is no observable specific binding. […] The NOS1 isoform lacks the pentabasic sequence in the autoinhibitory loop that we hypothe ...

NOS3 [7] = settings: full-length NOS3; previously reported; ref [4]; cited from earlier work
Text: While there is substantial nonspecific binding inherent in the NOS1 sample, it is quite clear that there is no observable specific binding. […] This was not surprising since others have qualitatively shown an interaction between NOS3 and JNK [10] and the MAP kinases have similarities in the requirements of binding to activators and substrates. Lack of binding to NOS1 by all three MAP kinases examined thus far strengthens the interpretation that NOS3 is a node for MAP kinase signaling, while NOS1 and NOS2 are not.

Kd (JNK1α1): 38 nM | koff (JNK1α1): 0.00054 s⁻¹ | kon (JNK1α1): 14100 M⁻¹ s⁻¹ | koff (p38α): 0.00053 s⁻¹ | kon (p38α): 17300 M⁻¹ s⁻¹ | Kd (ERK2): 940 nM | koff (ERK2): 0.00623 s⁻¹ | kon (ERK2): 6600 M⁻¹ s⁻¹
Compound: CC(C)C[C@H](NC(=O)[C@H](CS)NC(=O)[C@H](CCCNC(=N)N)NC(=O)[C@H](CCCNC(=N)N)NC(=O)[C@@H]1CCCN1C(=O)[C@@H](NC(=O)[C@@H](N)CS)[C@@H](C)O)C(=O)NCC(=O)N[C@@H](CO)C(=O)N[C@@H](CC(C)C)C(=O)N[C@H](C(=O)N[C@@H](Cc1ccccc1)C(=O)N1CCC[C@H]1C(=O)N[C@@H](CCCNC(=N)N)C(=O)N[C@@H](CCCCN)C(=O)N[C@@H](CC(C)C)C(=O)N[C@@H](CCC(N)=O)C(=O)NCC(=O)N[C@@H](CCCNC(=N)N)C(=O)N1CCC[C@H]1C(=O)N[C@@H](CO)C(=O)N1CCC[C@H]1C(=O)NCC(=O)N1CCC[C@H]1C(=O)N1CCC[C@H]1C(=O)N[C@@H](C)C(=O)O)C(C)C [NtMAP] (H-CTPRRCLGSLVFPRKLQGRPSPGPPA-OH)

binding of phosphopeptide (JNK1α1): negligible binding | binding of phosphopeptide (p38α): negligible binding | binding of phosphopeptide (ERK2): negligible binding
Compound: CTPRRCLGSLVFPRKLQGRPS*PGPPA [NtMAP with phosphorylated S114, NtMAP peptide with S114 phosphorylated]

Compound: Calmodulin [reference compound]
conformation of NOS3 (fluorescence decay) (NOS3 [1]; NOS3 holoenzyme): produced a change in conformation indicative of active NOS3 | conformation of JNK1α1-treated NOS3 (fluorescence decay) (NOS3 [1]; calmodulin on JNK1α1-treated NOS3): produced the same degree of shift (activation) in JNK1α1‐treated NOS3

Compound: Epidermal Growth Factor [EGF]
NOS3 phosphorylation status (NOS3 [2]): altered NOS3 phosphorylation status

binding of phosphopeptide (JNK1α1): negligible binding | binding of phosphopeptide (p38α): negligible binding | binding of phosphopeptide (ERK2): negligible binding
Compound: YKIRFNSISCSDPLVSSWRRKRKES*SNTDSA [AI with phosphorylated S633, AI loop peptide phosphorylated at the position corresponding to S633]

Kd (JNK1α1): 3 nM | koff (JNK1α1): 0.00025 s⁻¹ | kon (JNK1α1): 84600 M⁻¹ s⁻¹ | koff (p38α): 0.00096 s⁻¹ | kon (p38α): 15900 M⁻¹ s⁻¹ | Kd (ERK2): 170 nM | koff (ERK2): 0.002 s⁻¹ | kon (ERK2): 12100 M⁻¹ s⁻¹
Compound: YKIRFNSISCSDPLVSSWRRKRKESSNTDSA [AI]

Compound: cAMP‐dependent protein kinase [PKA, reference compound]
NO production / NOS3 activity (NOS3 [3]): increased production of NO; also recorded: increased activity

Compound: insulin: insulin, treatment of HMEC-1 cells
NOS3 phosphorylation status (NOS3 [2]): altered NOS3 phosphorylation status

Compound: mitogen‐activated protein kinase 1 [ERK2]
inhibition of NOS3 activity (NOS3 [4]): approximately 50% | NO production / NOS3 activity (NOS3 [3]): do not significantly change NO production; also recorded: did not alter in vitro NOS3 activity | conformation of NOS3 (NOS3 [5]): presented an altered conformation from untreated NOS3 | phosphorylation of NOS3 at S114 (NOS3 [6]): did not meaningfully phosphorylate S114 when compared to JNK1α1 and p38α | phosphorylation of NOS3 at S600 (NOS3 [6]): at S600; also recorded: phosphorylates S600; also recorded: robust when compared to JNK1α1 | binding to NOS1 (NOS1): no binding to NOS1 | Kd (NOS3 [7]): 160 nM

Compound: mitogen‐activated protein kinase 14 [p38α]
NO production / NOS3 activity (NOS3 [3]): do not significantly change NO production; also recorded: did not alter in vitro NOS3 activity | phosphorylation of NOS3 at S114 (NOS3 [6]): phosphorylates both residues; also recorded: easily detected when compared to ERK2 | phosphorylation of NOS3 at S600 (NOS3 [6]): phosphorylates both residues; also recorded: robust when compared to JNK1α1 | binding to NOS1 (NOS1): no binding to NOS1 | Kd (NOS3 [7]): 80 nM

Source: publication PMC9063426, “MAP kinases differentially bind and phosphorylate NOS3 via two unique NOS3 sites” (FEBS Open Bio, 2022)
